Among the data in BindingDB's records for doi:10.1021/acs.jmedchem.3c01130 (University of Toledo College of Medicine and Life Sciences, 2023) are IC50 values, retold here.

For orientation: IC50 means the concentration that inhibits the measured activity by half. Read a high IC50 as weaker potency in that assay.

The assay has as its target Transcription factor Sp1 (Homo sapiens, UniProt P08047). As to the kind of experiment: Inhibition of human SP1 transfected in PC-3 cells by renilla luciferase reporter gene assay. For orientation: Reporter assays use an easily measured gene product as a stand-in for the process of interest.

Sequence of Transcription factor Sp1 (P08047 whole entry): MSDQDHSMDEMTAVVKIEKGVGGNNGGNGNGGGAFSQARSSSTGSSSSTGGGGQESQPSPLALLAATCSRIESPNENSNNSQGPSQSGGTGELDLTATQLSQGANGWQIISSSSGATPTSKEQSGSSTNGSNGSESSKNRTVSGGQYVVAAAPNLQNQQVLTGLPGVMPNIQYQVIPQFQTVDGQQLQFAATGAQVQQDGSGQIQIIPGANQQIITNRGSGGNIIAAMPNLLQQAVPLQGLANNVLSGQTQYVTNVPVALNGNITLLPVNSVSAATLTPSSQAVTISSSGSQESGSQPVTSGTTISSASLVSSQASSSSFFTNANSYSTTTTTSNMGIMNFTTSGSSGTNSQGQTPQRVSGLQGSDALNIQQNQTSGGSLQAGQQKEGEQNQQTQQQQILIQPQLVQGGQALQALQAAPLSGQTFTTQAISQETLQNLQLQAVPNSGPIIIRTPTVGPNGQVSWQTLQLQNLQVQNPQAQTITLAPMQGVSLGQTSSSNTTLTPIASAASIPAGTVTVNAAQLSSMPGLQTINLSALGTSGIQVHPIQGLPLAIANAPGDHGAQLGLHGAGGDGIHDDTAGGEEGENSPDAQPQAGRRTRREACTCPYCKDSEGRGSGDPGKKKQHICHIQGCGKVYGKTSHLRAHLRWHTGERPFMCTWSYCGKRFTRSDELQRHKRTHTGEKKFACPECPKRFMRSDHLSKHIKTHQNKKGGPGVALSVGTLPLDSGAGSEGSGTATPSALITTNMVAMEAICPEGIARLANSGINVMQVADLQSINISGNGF

Regarding `COCC[n+]1c2c(n(Cc3cnccn3)c1C)C(=O)c1ccccc1C2=O` [Sepantronium Bromide], 8 nM corresponded to half-maximal inhibition (IC50).
